In paper PMC12095047, “Transport of phenoxyacetic acid herbicides by PIN-FORMED auxin transporters” (Nature Plants, 2025):
Where “and” joins values, the source holds several entries; their conditions need not be identical. Identical values can stand only once. Like-named read-outs stand apart in the source and are kept apart here.

Assays:
Format in all cases: biochemical
A. thaliana PIN8 = target: T1, A. thaliana PIN8 (Arabidopsis thaliana, UniProt Q9LFP6); assay: SSM electrophysiology, peak current response on PIN8 proteoliposomes; details: for Peak current: individual sensors
T1 construct: made in house
T1 sequence (Q9LFP6 1-367): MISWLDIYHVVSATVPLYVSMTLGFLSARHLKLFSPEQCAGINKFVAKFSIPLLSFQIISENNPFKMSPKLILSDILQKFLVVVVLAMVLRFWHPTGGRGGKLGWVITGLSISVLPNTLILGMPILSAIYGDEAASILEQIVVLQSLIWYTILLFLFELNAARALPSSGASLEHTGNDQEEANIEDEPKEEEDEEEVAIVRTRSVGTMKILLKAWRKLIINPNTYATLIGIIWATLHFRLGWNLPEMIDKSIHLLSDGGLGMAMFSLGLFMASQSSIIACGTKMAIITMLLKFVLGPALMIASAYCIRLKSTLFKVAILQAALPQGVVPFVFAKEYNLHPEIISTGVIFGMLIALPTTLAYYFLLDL
Description: (§1) SSM, using a SURFE2R N1 from Nanion Technologies, was conducted as described. In brief, soy polar lipid mix (38% phosphatidyl choline, 30% phosphatidyl ethanolamine, 18% phosphatidyl inositol, 7% phosphatidic acid and 7% other soy lipids) and 1-palmitoyl-2-oleoyl-sn-glycero-3-phosphocholin were purchased from Avanti. Liposomes were prepared in Ringer solution without Ca^2+ (115 mM NaCl, 2.5 mM KCl, 1 mM NaHCO3, 10 mM HEPES pH7.4, 1 mM MgCl2) and homogenized using a Lipsofast (Avestin) with a […]. Triton X-100 was added to the liposomes to a final concentration of 1% (v/v). Protein was added to liposomes to a calculated lipid-to-protein ratio (LPR) of 10 unless stated otherwise. The detergent was removed using 400 mg ml^−1 Bio Beads (BioRad) overnight at 4 °C in a rotary shaker. Proteoliposomes were frozen in liquid nitrogen and kept at −80 °C until use. Proteoliposomes were diluted 1:5 in Ringer solution without Ca^2+, sonicated five times and then applied to the sensors by centrifugation (30 min, 3,000 g, 4 °C). Non-activating buffer was Ringer solution without Ca^2+ as described unless specified otherwise, and activating buffer contained the substrate of interest. In most instances we used a single-solution exchange experiment. In this case proteoliposomes, immobilized on the supported membrane, are kept in non-activating buffer as specified. At the beginning of the experiment the non-activating buffer is replaced with fresh identical non-activating buffer, and after 1 s, activating buffer (same buffer containing substrate) is added. After another second, the buffer is replaced with non-activating buffer again. Current response is recorded throughout the entire 3 s. For competition or inhibition, the respective compound was present in non-activating and activating solutions. Each experiment was performed on at least two individual sensors. On each sensor each measurement consists of three technical replicates where the mean is calculated. KD values were determined as described previously. Briefly, the binding current induced by 100 µM NPA was recorded in the presence of different concentrations of the substrate under investigation ranging between 0 µM and 1,000 µM present in the activating solution and the non-activating solution (Extended Data Fig. 5b). […] The maximum peak current was then plotted as a function of the concentration of the substrate under investigation and plotted against the degree of inhibition and fitted with a one-site binding model using GraphPad Prism V10.4.1 The half maximal concentration corresponds to the KD of the substrate under investigation.

PIN8 I51Y = target: T2, PIN8 I51Y (Arabidopsis thaliana, UniProt Q9LFP6, I51Y); details: Michaelis–Menten fit
T2 construct: made in house
Description: as §1
(§2) The protocol for expression and purification of AtPIN8 protein (Uniprot: Q9LFP6) in lauryl maltose neopentyl glycol was described previously. All point mutants were generated using Q5 Site-Directed mutagenesis kit (New England Biolabs). The C-flat Holey Carbon grids (CF-1.2/1.3, Cu-300 mesh) were glow-discharged for 45 s at 15 mA in a GloQube Plus (Quorum). […] After 1 h of incubation on ice, the sample was centrifuged at 16,000 g for 15 min before blotting to remove precipitation. A drop of 4 µl of each sample was applied to the glow-discharged grids, blotted with a Vitrobot Mark IV (ThermoFisher Scientific) using the following settings (temperature 4 °C, 100% humidity, blot time of 4 s, blot force −1) and vitrified in liquid ethane.

PIN8 N223A = target: T3, PIN8 N223A (Arabidopsis thaliana, UniProt Q9LFP6, N223A); details: N223A
T3 construct: made in house
Description: as §1, §2

PIN8 S146A = target: T4, PIN8 S146A (Arabidopsis thaliana, UniProt Q9LFP6, S146A); details: for Peak current: S146A, individual sensors
T4 construct: made in house
Description: as §1, §2

PIN8 S55A = target: T5, PIN8 S55A (Arabidopsis thaliana, UniProt Q9LFP6, S55A); details: for Peak current: S55A, individual sensors
T5 construct: made in house
Description: as §1, §2

PIN8 S55A/S146A = target: T6, PIN8 S55A/S146A (Arabidopsis thaliana, UniProt Q9LFP6, S146A/S55A); details: Michaelis–Menten fit
T6 construct: made in house
Description: as §1, §2

PIN8 Y150A = target: T7, PIN8 Y150A (Arabidopsis thaliana, UniProt Q9LFP6, Y150A); details: for Peak current: Y150A, individual sensors
T7 construct: made in house
Description: as §1, §2

PIN8 N117A = target: T8, PIN8 N117A (Arabidopsis thaliana, UniProt Q9LFP6, N117A); assay: SSM electrophysiology peak current, PIN8 N117A proteoliposomes; details: for Relative Peak Current of WT (%): Substrate 4-CPA, replicates
T8 construct: made in house
Description: as §1, §2

[1] = target: T9, wild-type PIN8 proteoliposomes (Arabidopsis thaliana, UniProt Q9LFP6); assay: SSM electrophysiology, peak width (FWHM) of current response at LPR10 and LPR50; details: for Rel. FWHM (% of LPR10): replicates
T9 construct: made in house
T9 sequence (Q9LFP6 1-367): T1 sequence (Q9LFP6 1-367)
Description: as §1

[2] = WT PIN8 proteoliposomes, Michaelis–Menten fit
[3] = read-out: EC50 of peak current response

T4 sequence (Q9LFP6 whole entry S146A): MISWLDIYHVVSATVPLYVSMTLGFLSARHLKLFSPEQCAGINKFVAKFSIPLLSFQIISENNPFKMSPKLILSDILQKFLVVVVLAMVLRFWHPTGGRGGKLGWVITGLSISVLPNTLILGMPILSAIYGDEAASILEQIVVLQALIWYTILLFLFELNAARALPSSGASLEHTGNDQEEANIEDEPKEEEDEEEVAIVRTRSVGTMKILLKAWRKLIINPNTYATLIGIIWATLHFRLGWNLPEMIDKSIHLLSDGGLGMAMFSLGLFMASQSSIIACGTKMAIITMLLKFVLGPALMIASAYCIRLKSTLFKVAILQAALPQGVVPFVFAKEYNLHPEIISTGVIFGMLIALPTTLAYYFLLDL
T8 sequence (Q9LFP6 whole entry N117A): as the sequence (Q9LFP6 whole entry S146A) above, with N117A, A146S counted along it
T7 sequence (Q9LFP6 whole entry Y150A): as the sequence (Q9LFP6 whole entry S146A) above, with A146S, Y150A counted along it
T5 sequence (Q9LFP6 whole entry S55A): as the sequence (Q9LFP6 whole entry S146A) above, with S55A, A146S counted along it
T6 sequence (Q9LFP6 whole entry S55A/S146A): as the sequence (Q9LFP6 whole entry S146A) above, with S55A counted along it
T2 sequence (Q9LFP6 whole entry I51Y): as the sequence (Q9LFP6 whole entry S146A) above, with I51Y, A146S counted along it
T3 sequence (Q9LFP6 whole entry N223A): as the sequence (Q9LFP6 whole entry S146A) above, with A146S, N223A counted along it

O=C(O)COc1ccc(Cl)cc1 [4-CPA, 4-chlorophenoxyacetic acid]
Peak current (A. thaliana PIN8; 2 mM 4-CPA, absence of NPA): 6.735 nA and 9.149 nA
Peak current (A. thaliana PIN8; 2 mM 4-CPA, presence of 20 µM NPA): 3.357 nA
EC50 (A. thaliana PIN8; [2]): 800 ± 200 µM
maximal current Imax (A. thaliana PIN8; [2]): 12 ± 2 nA
Peak current (A. thaliana PIN8; WT, 5 µM substrate): 0.07132 nA and 0.09263 nA and 0.01805 nA
Peak current (A. thaliana PIN8; WT, 20 µM substrate): 0.2459 nA and 0.3985 nA and 0.3482 nA
Peak current (A. thaliana PIN8; WT, 50 µM substrate): 0.634 nA and 0.9337 nA and 0.8708 nA
Peak current (A. thaliana PIN8; WT, 100 µM substrate): 1.233 nA and 1.738 nA and 1.591 nA
Peak current (A. thaliana PIN8; WT, 500 µM substrate): 3.698 nA and 5.58 nA and 4.779 nA
Peak current (A. thaliana PIN8; WT, 1000 µM substrate): 5.355 nA and 8.269 nA and 6.9634 nA
Peak current (A. thaliana PIN8; WT, 2000 µM substrate): 7.157 nA and 9.571 nA and 9.556 nA
Imax (PIN8 I51Y): 3 ± 0.8 nA
EC50 (PIN8 I51Y; [3]): 1040 ± 252 µM
fold-change difference to the respective EC50 of wildtype PIN8 (PIN8 N223A): completely abolishes binding
Imax (PIN8 S146A; PIN8 S146A, Michaelis–Menten fit): 8 ± 2 nA
Peak current (PIN8 S146A; 5 µM substrate): 0.16 nA and 0.306 nA and 0.183 nA and 0.211 nA
Peak current (PIN8 S146A; 20 µM substrate): 0.62 nA and 0.288 nA and 0.616 nA
Peak current (PIN8 S146A; 50 µM substrate): 1.139 nA and 1.066 nA and 1.161 nA and 1.319 nA
Peak current (PIN8 S146A; 100 µM substrate): 1.866 nA and 1.352 nA and 1.859 nA and 2.228 nA
Peak current (PIN8 S146A; 500 µM substrate): 4.245 nA and 2.76 nA and 4.229 nA and 5.107 nA
Peak current (PIN8 S146A; 1000 µM substrate): 5.47 nA and 3.518 nA and 5.371 nA and 6.513 nA
Peak current (PIN8 S146A; 2000 µM substrate): 6.809 nA and 4.912 nA and 6.602 nA and 8.134 nA
Imax (PIN8 S55A; PIN8 S55A, Michaelis–Menten fit): 11 ± 1 nA
EC50 (PIN8 S55A; PIN8 S55A, Michaelis–Menten fit, read-out: EC50 of peak current response): 328 ± 15 µM
Peak current (PIN8 S55A; 5 µM substrate): 0.2701 nA and 0.2897 nA and 0.3406 nA
Peak current (PIN8 S55A; 20 µM substrate): 0.9459 nA and 0.8941 nA and 1.017 nA
Peak current (PIN8 S55A; 50 µM substrate): 1.817 nA and 1.664 nA and 1.992 nA
Peak current (PIN8 S55A; 100 µM substrate): 2.935 nA and 2.612 nA and 3.1231 nA
Peak current (PIN8 S55A; 500 µM substrate): 6.5808 nA and 5.777 nA and 6.881 nA
Peak current (PIN8 S55A; 1000 µM substrate): 8.474 nA and 7.36 nA and 8.719 nA
Peak current (PIN8 S55A; 2000 µM substrate): 10.4298 nA and 8.998 nA and 10.8546 nA
Imax (PIN8 S55A/S146A): 11 ± 0.9 nA
EC50 (PIN8 S55A/S146A; [3]): 81 ± 3 µM
Imax (PIN8 Y150A; PIN8 Y150A, Michaelis–Menten fit): 5 ± 0.4 nA
EC50 (PIN8 Y150A; PIN8 Y150A, Michaelis–Menten fit, read-out: EC50 of peak current response): 2620 ± 263 µM
Peak current (PIN8 Y150A; 5 µM substrate): 0.004001 nA and 0.000964 nA and 0.005187 nA and 0.01098 nA
Peak current (PIN8 Y150A; 20 µM substrate): 0.001883 nA and 0.005268 nA and 0.002512 nA and 0.004292 nA
Peak current (PIN8 Y150A; 50 µM substrate): 0.02123 nA and 0.03866 nA and 0.02734 nA and 0.07514 nA
Peak current (PIN8 Y150A; 100 µM substrate): 0.1072 nA and 0.1421 nA and 0.1118 nA and 0.1489 nA
Peak current (PIN8 Y150A; 500 µM substrate): 0.7863 nA and 0.8129 nA and 0.8214 nA and 0.8974 nA
Peak current (PIN8 Y150A; 1000 µM substrate): 1.36 nA and 1.41 nA and 1.338 nA and 1.516 nA
Peak current (PIN8 Y150A; 2000 µM substrate): 2.1396 nA and 2.167 nA and 2.059 nA and 2.335 nA
current response / function of PIN8 N117A (PIN8 N117A; N117A mutation): abolishes the current response
Relative Peak Current of WT (%) (PIN8 N117A; 100µM): 1.438% and 7.087% and 13.2919% and 50.142%
Relative Peak Current of WT (%) (PIN8 N117A; 2mM): 17.5134% and 20.2019% and 18.4651% and 19.2453%
Rel. FWHM (% of LPR10) ([1]; LPR10): 1.033 % of LPR10 and 0.9836 % of LPR10 (2×)
peak width of SSM-based current response as a function of lipid-to-protein ratio (LPR) ([1]; LPR10 versus LPR50): vary with lipid-to-protein ratio (LPR)
Rel. FWHM (% of LPR10) ([1]; LPR50): 1.475 % of LPR10 (2×) and 1.328 % of LPR10 and 1.377 % of LPR10
